Reference: PubChem BioAssay (NCI)
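How tested: cells in 96-well plates exposed to compound for 48 hours at five concentrations. The concentration for full growth arrest is given as TGI.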

Assays:
Assay in all cases: DTP human tumour cell line panel, 48 h
[1] = system: CCRF-CEM leukemia
[2] = system: HCT-116 colon
[3] = system: HL-60(TB) leukemia
[4] = system: HT29 colon
[5] = system: IGROV1 ovarian
[6] = system: LOX IMVI melanoma
[7] = system: MCF7 breast
[8] = system: MDA-MB-231 breast
[9] = system: MDA-MB-435
[10] = system: MOLT-4 leukemia
[11] = system: NCI-H23 lung
[12] = system: NCI-H460 lung
[13] = system: OVCAR-5 ovarian
[14] = system: PC-3 prostate
[15] = system: UO-31 renal
[16] = system: RPMI-8226 leukemia
[17] = system: SR leukemia

| SMILES | TGI [1] [µM] | TGI [2] [µM] | TGI [3] [µM] | TGI [4] [µM] | TGI [5] [µM] | TGI [6] [µM] | TGI [7] [µM] | TGI [8] [µM] | TGI [9] [µM] | TGI [10] [µM] | TGI [11] [µM] | TGI [12] [µM] | TGI [13] [µM] | TGI [14] [µM] | TGI [15] [µM] | TGI [16] [µM] | TGI [17] [µM] |
| --- | --- | --- | --- | --- | --- | --- | --- | --- | --- | --- | --- | --- | --- | --- | --- | --- | --- |
| CC12CC(C#N)(C#N)C(C#N)(CO1)C(=N)O2 (centres undefined) | 69.1 | > 100 | > 100 | > 100 | > 100 | > 100 | > 100 | > 100 | > 100 | > 100 | > 100 | > 100 | > 100 | > 100 | > 100 |  |  |
| CCOC(=O)NC1CN2CCC1CC2 (centres undefined) | > 100 | > 100 | > 100 | > 100 | > 100 | > 100 |  | > 100 | > 100 | > 100 | > 100 | > 100 | > 100 | > 100 | > 100 | > 100 | > 100 |
| CN(CCN(C)C(=S)NN)C(=S)NN | > 100 | > 100 | > 100 | > 100 | > 100 | > 100 |  | > 100 | > 100 | > 100 | > 100 | > 100 | > 100 | > 100 | > 100 | > 100 | > 100 |
| COc1ccc(/C=N/n2c(-c3ccccc3)n[nH]c2=O)cc1 | > 100 | > 100 |  | > 100 |  |  | > 100 | > 100 | > 100 | > 100 | > 100 | > 100 | > 100 | > 100 | > 100 | > 100 |  |
| COC(=O)C1C=CN(N(C)C)C2=C1C(=O)c1c(O)cccc1C2=O (centres undefined) | 5.04 | 5.79 |  | 3.61 | 5.63 |  | 6.38 | 5.79 |  |  | 4.11 | 3.03 | 4.62 | > 100 | 15.8 | 5.97 |  |
| CC(C)C[C@H]1[C@@H](OCc2ccccc2)COS(=O)N1[C@H](C)c1ccccc1 (some centres undefined) | 36.4 | 19 | 51.7 | 49.3 | > 100 | 28.2 |  | 65.2 | > 100 | 51.3 | > 100 | 47.8 | > 100 | > 100 | > 100 | 58.4 |  |
| Cc1ccsc1/C=N/Nc1ccc2ccccc2n1 | > 100 | > 100 | 40.1 | > 100 | 79.3 | > 100 | 32.3 |  | > 100 | > 100 | > 100 |  | > 100 | > 100 | > 100 | > 100 |  |
| CC(=C\c1ccccc1)/C=C(\C#N)C(N)=O |  |  |  | > 10 | > 10 | > 10 | > 10 | > 10 | > 10 |  |  | > 10 | > 10 | > 10 | > 10 |  |  |
| C#CCN(CC#C)C(=O)C(=O)c1c[nH]c2ccc(OC)cc12 | 43.1 | 36.1 | 20.5 | 25.3 | > 100 | 33.6 | 34.7 | 31 | 35.4 |  | 50.5 | 29.7 | 48 |  | 21.1 | 22.4 | 23.2 |
| COc1cccc2c1C(=O)c1c(O)c3c(c(O)c1C2=O)C[C@@](O)(C(=O)CO)C[C@@H]3OC1CC(N)C(OC)C(C)O1 (some centres undefined) | 0.176 | > 100 | 0.388 | 1.66 | 16.4 | 0.181 | 0.41 | 7.01 |  | 0.0517 | 0.457 | 0.217 | 1.34 | 1.64 | 1.41 | 0.374 | 0.364 |
| CCOC(=O)c1ccc(NC(=O)O/N=C(/Cl)CCl)cc1 | > 100 | > 100 | 68.7 | > 100 | > 100 | > 100 | 76 | > 100 |  | > 100 | > 100 | > 100 | > 100 | > 100 | > 100 | > 100 | > 100 |
| CC(C)(C)[Si](C)(C)OC1/C(=C/C#N)C(n2ccc(=O)[nH]c2=O)OC1CO (centres undefined) |  | > 100 |  | > 100 |  |  | > 100 | > 100 | > 100 | > 100 | > 100 | > 100 | > 100 | > 100 | > 100 |  | > 100 |
| CCc1nc2ccc(N=NN(C)C)cc2[nH]1 | > 100 | > 100 |  | > 100 | > 100 |  |  | > 100 | > 100 | > 100 | > 100 | > 100 | > 100 | > 100 | > 100 | > 100 |  |
| CCCCn1c(C)c2c(c1C)C(=O)N(CC(O)CN1CCc3ccccc3C1)C2=O (centres undefined) | > 100 | > 100 | > 100 | > 100 | > 100 | > 100 | > 100 | > 100 | > 100 | > 100 | > 100 | > 100 | > 100 | > 100 | > 100 | > 100 |  |
| N#CC1(C#N)C2CCCCC23OC(=N)C1(C#N)C(c1ccccc1)O3 (centres undefined) | > 100 | 41.4 |  | 60.2 | 37.2 | 45.1 | 49.9 | 33.8 | 83.6 | > 100 | > 100 | 49.7 | 50.6 | 55.4 | > 100 |  |  |
| Cc1ccc(NC(=S)NNC(=O)c2cc(-c3ccccc3)nc3ccccc23)cc1 |  | 21.3 |  | 55 | 36.7 |  | 31.5 | 36.3 | 10.9 | 44.3 | 27.4 | 47.9 | 31.3 | 32.2 | 25.5 | 39.2 | 6.72 |

| SMILES | TGI [1] [µM] | TGI [2] [µM] | TGI [3] [µM] | TGI [4] [µM] | TGI [5] [µM] | TGI [6] [µM] | TGI [7] [µM] | TGI [8] [µM] | TGI [9] [µM] | TGI [10] [µM] | TGI [11] [µM] | TGI [12] [µM] | TGI [13] [µM] | TGI [14] [µM] | TGI [15] [µM] | TGI [16] [µM] | TGI [17] [µM] |
| --- | --- | --- | --- | --- | --- | --- | --- | --- | --- | --- | --- | --- | --- | --- | --- | --- | --- |
| CC(/C=N\NC(=S)N1CCCCC1)=N/NC(=S)N1CCCCC1 |  | 6.19 |  | 62.4 | 8.3 | > 100 | > 45.8 | 11.1 | 17.5 | > 100 | 19.2 | 9.76 | 21.8 | 11.9 | 7.19 | > 100 |  |
| CSc1nncc2[nH]c(C)nc12 | > 100 | > 100 | > 100 | > 100 | > 100 | > 100 | > 100 | > 100 | > 100 | > 100 | > 100 |  | > 100 | > 100 | > 100 | > 100 |  |
| CC(NNC(=O)CC(=O)N(C(=O)c1ccccc1)c1ccc(Cl)cc1)c1cc2ccccc2oc1=O (centres undefined) | > 10 | > 10 | > 10 | > 10 | > 10 | > 10 | > 10 | > 10 | > 10 | > 10 | > 10 | > 10 | > 10 | > 10 | 0.275 | > 10 |  |
| CC(C)(C)NC(=O)N1N=C(c2ccccc2)C1c1ccccc1 (centres undefined) | > 100 | 52.8 | > 100 | 32.2 | > 100 | > 100 | > 100 | > 100 |  |  | > 100 | > 100 | > 100 | 56.5 | 63.1 | 46 |  |
| COc1cc2c(cc1O)C1C(O)C(O)C=C3CCN(C2)C31 (centres undefined) | 72.6 | 2.25 | 7.53 | 18.9 | 13.6 | 8.19 |  |  |  | 12.2 | 6.39 | 10.1 | 24.6 |  | 9.04 | 11.7 | 5.67 |
| O=P(O)(Cc1ccccc1)c1ccccc1-c1ccccc1 | > 100 | > 100 | > 100 | > 100 | > 100 | > 100 | > 100 | > 100 |  | > 100 | > 100 | > 100 | > 100 | > 100 | > 100 |  | > 100 |
| COc1ccc(-c2nc(SCC(=O)N/N=C/c3ccc(O)c(OC)c3)[nH]c2-c2ccc(OC)cc2)cc1 | 92.2 | 33.3 | 32.4 | 46.1 |  | 46.7 | 33.6 | 84.5 | > 100 |  | 49.2 | 75.6 | 63.7 | > 100 | > 100 |  |  |
| CC(=O)Nc1ccc2cc(C)c(=O)[nH]c2n1 | > 100 | > 100 | > 100 | > 100 | > 100 |  |  | > 100 | > 100 | > 100 | > 100 | > 100 | > 100 | > 100 | > 100 | > 100 | > 100 |
| COc1ccc(-c2c(C#N)c(O)n(NS(=O)(=O)c3ccc(C)cc3)c(=O)c2C#N)cc1 | > 100 | > 100 | > 100 | > 100 | > 100 | > 100 | > 100 | > 100 | > 100 | 66.1 |  | > 100 | > 100 | > 100 |  | 54.3 |  |
| Cn1c(=O)c2c(no[n+]2[O-])c2ccccc21 | 48.9 | 30.2 |  | 37.2 | 31.4 | 31.4 | > 100 | 48 | 68.5 | 44.4 | 34.8 | 35.3 |  | 71.8 | 55 | 62 | 52.3 |
| CC1(C)OC2C(O)CN3CCS[C@H]3C2O1 (some centres undefined) | > 100 | > 100 | > 100 | > 100 | > 100 | > 100 |  | > 100 | > 100 | > 100 | > 100 | > 100 | > 100 | > 100 | > 100 | > 100 | > 100 |
| COc1ccc(C(O)c2nccn2C)c(OC)c1 (centres undefined) | > 100 | > 100 | > 100 | > 100 | > 100 |  | > 100 |  |  | > 100 | > 100 | > 100 | > 100 | > 100 | > 100 | > 100 | > 100 |
| CC[C@]1(Cc2ccc(OC)c(OC)c2)[C@@H]2C[C@@H](C3OCCO3)ON2O[C@H](OC2CCCC2(c2ccccc2)c2ccccc2)[C@@H]1OC(C)=O (some centres undefined) | 60.8 | 50.9 |  | 42.4 | 50.1 | 53.9 | 41.1 | > 100 | 46.9 | 29 | 43.4 | 34.7 | 36 | 63.8 | 37.7 |  | 45.5 |
| O=C(/C=C/C=C/c1ccccc1)c1ccc2c(c1)CCCC2 | > 100 | > 100 |  | > 100 | > 100 | > 100 | > 100 | > 100 | 40.8 | 87.6 | > 100 |  | > 100 | > 100 | > 100 | > 100 | 87.9 |
| CC#C[P+](c1ccccc1)(c1ccccc1)c1ccccc1 | 3.57 | 13.3 | 13.9 | 12.9 | 26.1 | 6.75 |  |  |  | 5.31 | 7.03 | 19.2 | 22 |  | 76.4 |  | 14.3 |
| O=C(NC(CO)Cc1ccc(Oc2cc(CC(CO)NC(=O)OCc3ccccc3)ccc2OC(=O)OCc2ccccc2)cc1)OCc1ccccc1 (centres undefined) | > 100 | 40.7 | 41.7 | > 100 | 46.6 | 32.9 | 26.8 |  | 45 | 22.4 | 36.1 | 38.9 | > 100 | 32.7 | > 100 | 31 | 60.8 |
